Experimental data as given in patent US20210355107A1, “MULTI-SUBSTITUTED PYRIDONE DERIVATIVES AND MEDICAL USE THEREOF” (Beijing Yuezhikangtai Biomedicines Co., Ltd., priority 2018, published 2021).

Biological target: T1, Ba/F3 Axl cells (Homo sapiens, UniProt P30530)
T1 sequence (P30530 1-894): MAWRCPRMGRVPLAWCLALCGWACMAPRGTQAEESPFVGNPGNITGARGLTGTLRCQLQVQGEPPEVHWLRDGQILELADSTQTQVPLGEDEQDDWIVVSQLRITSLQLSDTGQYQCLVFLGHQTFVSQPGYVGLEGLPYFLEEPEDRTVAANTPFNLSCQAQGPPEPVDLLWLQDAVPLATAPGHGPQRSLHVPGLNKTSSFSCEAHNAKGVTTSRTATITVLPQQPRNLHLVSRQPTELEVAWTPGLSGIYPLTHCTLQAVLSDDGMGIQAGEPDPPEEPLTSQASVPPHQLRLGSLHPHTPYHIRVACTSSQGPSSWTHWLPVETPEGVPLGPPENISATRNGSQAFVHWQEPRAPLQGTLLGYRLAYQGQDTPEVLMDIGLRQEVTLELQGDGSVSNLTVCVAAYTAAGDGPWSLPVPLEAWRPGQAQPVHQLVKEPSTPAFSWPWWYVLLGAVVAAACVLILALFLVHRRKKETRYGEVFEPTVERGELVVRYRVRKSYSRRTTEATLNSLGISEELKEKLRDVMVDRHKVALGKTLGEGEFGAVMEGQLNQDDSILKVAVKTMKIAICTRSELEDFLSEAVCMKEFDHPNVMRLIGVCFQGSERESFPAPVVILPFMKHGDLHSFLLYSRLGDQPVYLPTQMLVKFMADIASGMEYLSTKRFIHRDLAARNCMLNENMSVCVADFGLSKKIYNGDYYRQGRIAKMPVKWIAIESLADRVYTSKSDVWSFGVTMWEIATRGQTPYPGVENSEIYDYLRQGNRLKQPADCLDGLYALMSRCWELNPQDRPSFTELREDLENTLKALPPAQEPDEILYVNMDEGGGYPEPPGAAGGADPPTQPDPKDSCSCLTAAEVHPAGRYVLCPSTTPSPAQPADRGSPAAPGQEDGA
Test: Ba/F3 Axl cell proliferation, CellTiter-Glo Luminescent Cell Viability Assay
Assay type: cell-based
Details: 100 ng/mL rhGas6, 72 h incubation, read-out: IC50 (nM) against Ba/F3 Axl cells
Description: Test method: the inhibitory activity of the compounds against Ba/F3 Axl cell proliferation was evaluated using CellTiter-Glo® Luminescent Cell Viability Assay Kit (Promega).
Test procedures: when thawing Ba/F3 Axl cells, the cell cryopreservation tube was shaken rapidly in a water bath at 37° C. to thaw the cells in 1 min. The cell suspension after thawing was mixed with RPMI1640 culture medium containing 10% FBS and centrifuged for 5 min at 1000 rpm, and the supernatant was discarded. The cell pellet was suspended in 5 mL of complete culture medium. […] Cell passage was performed at a cell density of 2×10^6 viable cells/mL. When the cells were passaged, the original cell suspension was directly made uniform by pipetting. 1/10 (namely 0.5 mL) of the cell suspension was kept, added with 4.5 mL of new complete culture medium and then made uniform by pipetting. The cell culture flask was then placed in a cell incubator for further culturing. Cell plating was performed when the cell confluence reached 2×10^6 viable cells/mL again. With reference to the method for cell passage, 1/10 (namely 0.5 mL) of the cell suspension was kept for further culturing when the cells were plated, and the remaining cell suspension was placed in a 15 mL centrifuge tube. The supernatant was discarded after centrifugation, and 5 mL of complete culture medium was used to resuspend the cells. […] A control group that contains no cell or compound but only complete culture medium and a control group that contains no compound but cells were set. The cell plates were incubated overnight in a cell incubator. […] The cell plates were then incubated in the cell incubator for 72 h. […] The cell plate was left to stand at room temperature for 20 min to stabilize luminescence signals, and the luminescence value of each well was scanned by a Spectramax M3 multi-functional microplate reader (Molecular Devices) at full wavelength.
Test samples: example compounds of the present invention and bemcentinib (positive control compound).
Data analysis: cell viability was calculated for compounds at various concentrations using the following formula:
Cell viability(%)=(Lumtest compound−Lumculture solution control)/(Lumcell control−Lumculture solution control)×100%,
where Lum refers to the luminescence value of each well of the test compound plate read by the multi-functional microplate reader.
The data were analyzed using GraphPad Prism 7.0 software, fitted with nonlinear S-curve regression to give dose-response curves, and IC50 values were calculated therefrom.

Compound | GI50
CC(C)n1cc(C(=O)Nc2ccc(-c3cc(-c4cnn(C)c4)cnc3N)c(F)c2)c(=O)c(-c2ccc(F)cc2)c1C#N [Example 4, N-(4-(2-amino-5-(1-methyl-1H-pyrazol-4-yl)pyridin-3-yl)-3-fluorophenyl)-6-cyano-5-(4-fluorophenyl)-1-isopropyl-4-oxo-1,4-dihydropyridine-3-carboxamide] | 0.57 nM
[2H]C([2H])([2H])n1cc(-c2cnc(N)c(-c3cc(F)c(NC(=O)c4cn(C(C)C)c(C#N)c(-c5ccc(F)cc5)c4=O)cc3F)c2)cn1 [Example 34, N-(4-(2-amino-5-(1-methyl-d3-1H-pyrazol-4-yl)pyridin-3-yl)-2,5-difluorophenyl)-6-cyano-5-(4-fluorophenyl)-1-isopropyl-4-oxo-1,4-dihydropyridine-3-carboxamide] | 0.28 nM
CCn1cc(-c2cnc(N)c(-c3ccc(NC(=O)c4cn(C(C)C)c(C#N)c(-c5ccc(F)cc5)c4=O)cc3F)c2)cn1 [Example 3, N-(4-(2-amino-5-(1-ethyl-1H-pyrazol-4-yl)pyridin-3-yl)-3-fluoro-phenyl)-6-cyano-5-(4-fluorophenyl)-1-isopropyl-4-oxo-1,4-dihydropyridine-3-carboxamide] | 0.29 nM
COc1cc2nccc(Oc3ccc(NC(=O)c4cn(C(C)C)c(C#N)c(-c5ccc(F)cc5)c4=O)cc3F)c2cc1OC [Example 24, 6-cyano-N-(4-((6,7-dimethoxyquinolin-4-yl)oxy)-3-fluoro-phenyl)-5-(4-fluorophenyl)-1-isopropyl-4-oxo-1,4-dihydropyridine-3-carboxamide] | 0.36 nM
CCn1cc(-c2cnc(N)c(-c3cc(F)c(NC(=O)c4cn(C(C)C)c(C#N)c(-c5ccc(F)cc5)c4=O)cc3F)c2)cn1 [Example 33, N-(4-(2-amino-5-(1-ethyl-1H-pyrazol-4-yl)pyridin-3-yl)-2,5-difluorophenyl)-6-cyano-5-(4-fluorophenyl)-1-isopropyl-4-oxo-1,4-dihydropyridine-3-carboxamide] | 0.23 nM
CC(C)n1cc(C(=O)Nc2cc(F)c(-c3cc(-c4cnn(C)c4)cnc3N)cc2F)c(=O)c(-c2ccc(F)cc2)c1C#N [Example 6, N-(4-(2-amino-5-(1-methyl-1H-pyrazol-4-yl)pyridin-3-yl)-2,5-difluorophenyl)-6-cyano-5-(4-fluorophenyl)-1-isopropyl-4-oxo-1,4-dihydropyridine-3-carboxamide] | 0.49 nM
COc1cc2nccc(Oc3ccc(NC(=O)c4cn(C)c(C#N)c(-c5ccc(F)cc5)c4=O)cc3F)c2cc1OC [Example 21, 6-cyano-N-(4-((6,7-dimethoxyquinolin-4-yl)oxy)-3-fluoro-phenyl)-5-(4-fluorophenyl)-1-methyl-4-oxo-1,4-dihydropyridine-3-carboxamide] | 0.29 nM
